Measured values reported in patent publication US20100099561A1, “HETEROBICYCLIC ALKYLTHIO-BRIDGED ISOXAZOLINES” (E.I. DU PONT DE NEMOURS AND COMPANY, priority 2008, published 2010).

How the values were obtained:
Assay type in all cases: in vivo
[1] = tested on: barnyardgrass (Echinochloa crus-galli); assay: Test A preemergence, barnyardgrass; settings: 0 to 100 scale (0 no effect, 100 complete control)
Method in brief: (§1)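 Ratings of 0–100 (0 no effect, 100 complete control) came from visual comparison with untreated controls after roughly ten days in a greenhouse. Plants in loam soil–sand blend were treated with compound in non-phytotoxic solvent plus surfactant, pre- or postemergence (one- to two-leaf stage).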

[2] = tested on: large crabgrass (Digitaria sanguinalis); assay: Test A preemergence, large crabgrass; settings: 0 to 100 scale (0 no effect, 100 complete control)
Method in brief: as §1

[3] = tested on: pigweed (Amaranthus retroflexus); assay: Test A preemergence, pigweed; settings: 0 to 100 scale (0 no effect, 100 complete control)
Method in brief: as §1

[4] = tested on: velvetleaf (Abutilon theophrasti); assay: Test A preemergence, velvetleaf; settings: 0 to 100 scale (0 no effect, 100 complete control)
Method in brief: as §1

[5] = tested on: wheat (Triticum aestivum); assay: Test A preemergence, wheat; settings: 0 to 100 scale (0 no effect, 100 complete control)
Method in brief: as §1

[6] = tested on: barnyardgrass (Echinochloa crus-galli); assay: Test A postemergence, barnyardgrass; settings: 0 to 100 scale (0 no effect, 100 complete control)
Method in brief: as §1

[7] = tested on: velvetleaf (Abutilon theophrasti); assay: Test A postemergence, velvetleaf; settings: 0 to 100 scale (0 no effect, 100 complete control)
Method in brief: as §1

[8] = tested on: wheat (Triticum aestivum); assay: Test A postemergence, wheat; settings: 0 to 100 scale (0 no effect, 100 complete control)
Method in brief: as §1

[9] = tested on: Italian ryegrass (Lolium multiflorum); assay: Test B preemergence, Italian ryegrass; settings: Preemergence, scale 0 to 100
From the text: (§2) Seeds of plant species selected from blackgrass (Alopecurus myosuroides), downy bromegrass (Bromus tectorum), green foxtail (Setaria viridis), Italian ryegrass (Lolium multiflorum), wheat (Triticum aestivum), wild oat (Avena fatua), catchweed bedstraw (Galium aparine), bermudagrass (Cynodon dactylon), Surinam grass (Brachiaria decumbens), cocklebur (Xanthium strumarium), corn (Zea mays), large crabgrass (Digitaria sanguinalis), woolly cupgrass (Eriochloa villosa), giant foxtail (Setaria faberii), goosegrass (Eleusine indica), johnsongrass (Sorghum halepense), kochia (Kochia scoparia), lambsquarters (Chenopodium album), morningglory (Ipomoea coccinea), nightshade (eastern black nightshade, Solanum ptycanthum), yellow nutsedge (Cyperus esculentus), pigweed (Amaranthus retroflexus), ragweed (common ragweed, Ambrosia elatior), soybean (Glycine max), sunflower (common oilseed sunflower, Helianthus annuus), Russian thistle (Salsola kali), and velvetleaf (Abutilon theophrasti) were planted into a blend of loam soil and sand and treated preemergence with test compounds formulated in a non-phytotoxic solvent mixture which included a surfactant. Treated plants and controls were maintained in a greenhouse for 13 to 15 days, after which time all species were compared to controls and visually evaluated. Plant response ratings, summarized in Table B, are based on a scale of 0 to 100 where 0 is no effect and 100 is complete control. A dash (-) response means no test result.

[10] = tested on: Surinam grass (Brachiaria decumbens); assay: Test B preemergence, Surinam grass; settings: Preemergence, scale 0 to 100
From the text: as §2

[11] = tested on: corn (Zea mays); assay: Test B preemergence, corn; settings: scale 0 to 100
From the text: as §2

[12] = tested on: giant foxtail (Setaria faberii); assay: Test B preemergence, giant foxtail; settings: scale 0 to 100
From the text: as §2

[13] = tested on: johnsongrass (Sorghum halepense); assay: Test B preemergence, johnsongrass; settings: scale 0 to 100
From the text: as §2

[14] = tested on: lambsquarters (Chenopodium album); assay: Test B preemergence, lambsquarters; settings: scale 0 to 100
From the text: as §2

[15] = tested on: morningglory (Ipomoea coccinea); assay: Test B preemergence, morningglory; settings: scale 0 to 100
From the text: as §2

[16] = tested on: nightshade (eastern black nightshade, Solanum ptycanthum); assay: Test B preemergence, nightshade; settings: scale 0 to 100
From the text: as §2

[17] = tested on: soybean (Glycine max); assay: Test B preemergence, soybean; settings: Preemergence, scale 0 to 100
From the text: as §2

[18] = tested on: umbrella sedge (Cyperus difformis); assay: Test B flooded paddy test, umbrella sedge; settings: Flood, scale 0 to 100
Method in brief: (§3)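 Compounds were added directly to paddy water over 2-leaf-stage plants in pots flooded 3 cm above soil, water depth maintained. Visual injury scored against controls after 13 to 15 days in greenhouse, 0 (none) to 100 (complete control); dash indicates no result.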

[19] = tested on: ducksalad (Heteranthera limosa); assay: Test B flooded paddy test, ducksalad; settings: Flood, scale 0 to 100
Method in brief: as §3

[20] = tested on: barnyardgrass (Echinochloa crus-galli); assay: Test B flooded paddy test, barnyardgrass; settings: Flood
Method in brief: as §3

Compound: CC1(C)CC(S(=O)(=O)Cc2c(C(F)(F)F)nc3n(c2=O)CCCC3)=NO1 [Compound 8, 3-[[(4,5-dihydro-5,5-dimethyl-3-isoxazolyl)sulfonyl]methyl]-6,7,8,9-tetrahydro-2-(trifluoromethyl)-4H-pyrido[1,2-α]pyrimidin-4-one]
- Plant response rating, Barnyardgrass ([1]; 125 g ai/ha): 90
- Plant response rating, Barnyardgrass ([1]; 500 g ai/ha): 90
- Plant response rating, Crabgrass, Large ([2]; 125 g ai/ha): 90
- Plant response rating, Crabgrass, Large ([2]; 500 g ai/ha): 100
- Plant response rating, Pigweed ([3]; 125 g ai/ha): 30
- Plant response rating, Pigweed ([3]; 500 g ai/ha): 100
- Plant response rating, Velvetleaf ([4]; 125 g ai/ha): 20
- Plant response rating, Velvetleaf ([4]; 500 g ai/ha): 90
- Plant response rating, Wheat ([5]; 125 g ai/ha): 0
- Plant response rating, Wheat ([5]; 500 g ai/ha): 60
- Plant response rating, Barnyardgrass ([6]; 125 g ai/ha): 80
- Plant response rating, Barnyardgrass ([6]; 500 g ai/ha): 90
- Plant response rating, Velvetleaf ([7]; 125 g ai/ha): 50
- Plant response rating, Velvetleaf ([7]; 500 g ai/ha): 70
- Plant response rating, Wheat ([8]; 125 g ai/ha): 20
- Plant response rating, Wheat ([8]; 500 g ai/ha): 60
- Plant response rating, Ryegrass, Italian ([9]; 16 g ai/ha): 0
- Plant response rating, Ryegrass, Italian ([9]; 31 g ai/ha): 30
- Plant response rating, Ryegrass, Italian ([9]; 62 g ai/ha): 35
- Plant response rating, Ryegrass, Italian ([9]; 125 g ai/ha): 100
- Plant response rating, Surinam Grass ([10]; 16 g ai/ha): 65
- Plant response rating, Surinam Grass ([10]; 31 g ai/ha): 95
- Plant response rating, Surinam Grass ([10]; 62 g ai/ha): 100
- Plant response rating, Surinam Grass ([10]; 125 g ai/ha): 100
- Plant response rating, Corn ([11]; 16 g ai/ha): 10
- Plant response rating, Corn ([11]; 31 g ai/ha): 15
- Plant response rating, Corn ([11]; 62 g ai/ha): 45
- Plant response rating, Corn ([11]; 125 g ai/ha): 55
- Plant response rating, Foxtail, Giant ([12]; 16 g ai/ha): 80
- Plant response rating, Foxtail, Giant ([12]; 31 g ai/ha): 90
- Plant response rating, Foxtail, Giant ([12]; 62 g ai/ha): 98
- Plant response rating, Foxtail, Giant ([12]; 125 g ai/ha): 100
- Plant response rating, Johnsongrass ([13]; 16 g ai/ha): 75
- Plant response rating, Johnsongrass ([13]; 31 g ai/ha): 90
- Plant response rating, Johnsongrass ([13]; 62 g ai/ha): 100
- Plant response rating, Johnsongrass ([13]; 125 g ai/ha): 100
- Plant response rating, Lambsquarters ([14]; 16 g ai/ha): 55
- Plant response rating, Lambsquarters ([14]; 31 g ai/ha): 98
- Plant response rating, Lambsquarters ([14]; 62 g ai/ha): 100
- Plant response rating, Lambsquarters ([14]; 125 g ai/ha): 100
- Plant response rating, Morningglory ([15]; 16 g ai/ha): 0
- Plant response rating, Morningglory ([15]; 31 g ai/ha): 0
- Plant response rating, Morningglory ([15]; 62 g ai/ha): 20
- Plant response rating, Morningglory ([15]; 125 g ai/ha): 80
- Plant response rating, Nightshade ([16]; 16 g ai/ha): 0
- Plant response rating, Nightshade ([16]; 31 g ai/ha): 65
- Plant response rating, Nightshade ([16]; 62 g ai/ha): 75
- Plant response rating, Nightshade ([16]; 125 g ai/ha): 98
- Plant response rating, Soybean ([17]; 16 g ai/ha): 0
- Plant response rating, Soybean ([17]; 31 g ai/ha): 0
- Plant response rating, Soybean ([17]; 62 g ai/ha): 0
- Plant response rating, Soybean ([17]; 125 g ai/ha): 0
- Plant response rating, Sedge, Umbrella ([18]; 62 g ai/ha): 0
- Plant response rating, Sedge, Umbrella ([18]; 250 g ai/ha): 20
- Plant response rating, Ducksalad ([19]; 62 g ai/ha): 0
- Plant response rating, Ducksalad ([19]; 250 g ai/ha): 20
- Plant response rating, Barnyardgrass ([20]; 62 g ai/ha, scale 0 to 100): 0
- Plant response rating, Barnyardgrass ([20]; 250 g ai/ha, scale 0 to 100 (0 no effect, 100 complete control)): 0
